Data published in the supplement of paper PMC4862054.

test system: Hs578T; settings: 72 h
Summary of the method: (§1)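 For viability and cell death testing, 384-well plates carried compound at 5 concentrations in 10-fold steps over a compound-specific 10,000-fold range, and breast cancer cell lines were seeded in 20 µl suspension. After 72 h incubation, cell death was read by CellTox Green fluorescence (485/520 nm) before viability was read by CellTiter-Glo luminescence. EC50 was fitted from the dose-response curves and censored at the top concentration. Normalisation on each plate was to 0.1 % DMSO and a positive kill control.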

Row | SMILES | EC50, CellTiter-Glo
1 | COC1=C2C[C@@H](C)C[C@H](OC)[C@H](O)[C@@H](C)/C=C(\C)[C@H](OC(N)=O)[C@@H](OC)/C=C\C=C(/C)C(=O)NC(=CC1=O)C2=O [Geldanamycin] | 5350 nM
2 | COC(=O)C[C@](O)(CCCC(C)(C)O)C(=O)O[C@@H]1C(OC)=C[C@]23CCCN2CCc2cc4c(cc2[C@H]13)OCO4 [Omacetaxine] | 68.3 nM
3 | C[C@@]1(C(=O)Nc2ccc(F)nc2)CCCN1c1nc(Nc2cc(C3CC3)n[nH]2)c2cccn2n1 | 7980 nM
4 | COc1ncc(-c2ccc3nccc(-c4ccnnc4)c3c2)cc1NS(=O)(=O)c1ccc(F)cc1F | 37.6 nM

test system: MDA-MB-453; settings: 72 h
Summary of the method: as §1

Row | EC50, CellTiter-Glo | SMILES
5 | 3390 nM | COC1=C2C[C@@H](C)C[C@H](OC)[C@H](O)[C@@H](C)/C=C(\C)[C@H](OC(N)=O)[C@@H](OC)/C=C\C=C(/C)C(=O)NC(=CC1=O)C2=O [Geldanamycin]
6 | 73.9 nM | COC(=O)C[C@](O)(CCCC(C)(C)O)C(=O)O[C@@H]1C(OC)=C[C@]23CCCN2CCc2cc4c(cc2[C@H]13)OCO4 [Omacetaxine]
7 | 14.8 nM | COc1ncc(-c2ccc3nccc(-c4ccnnc4)c3c2)cc1NS(=O)(=O)c1ccc(F)cc1F

test system: CAL-51; settings: 72 h
Summary of the method: as §1

Row | SMILES | EC50, CellTiter-Glo
8 | CN(c1ccccc1CNc1nc(Nc2ccc3c(c2)CC(=O)N3)ncc1C(F)(F)F)S(C)(=O)=O | 1110 nM
9 | COC1=C2C[C@@H](C)C[C@H](OC)[C@H](O)[C@@H](C)/C=C(\C)[C@H](OC(N)=O)[C@@H](OC)/C=C\C=C(/C)C(=O)NC(=CC1=O)C2=O [Geldanamycin] | 3480 nM
10 | COC(=O)C[C@](O)(CCCC(C)(C)O)C(=O)O[C@@H]1C(OC)=C[C@]23CCCN2CCc2cc4c(cc2[C@H]13)OCO4 [Omacetaxine] | 37.5 nM
11 | C[C@@]1(C(=O)Nc2ccc(F)nc2)CCCN1c1nc(Nc2cc(C3CC3)n[nH]2)c2cccn2n1 | 1060 nM
12 | COc1ncc(-c2ccc3nccc(-c4ccnnc4)c3c2)cc1NS(=O)(=O)c1ccc(F)cc1F | 34.7 nM
13 | Cn1c(=O)c(F)c(Nc2ccc(I)cc2F)c2c(=O)n(C[C@@H](O)CO)cnc21 [TAK-733] | 3.04 nM

test system: MDA-MB-231; settings: 72 h
Summary of the method: as §1

Row | EC50, CellTiter-Glo | SMILES
14 | 1990 nM | CN(c1ccccc1CNc1nc(Nc2ccc3c(c2)CC(=O)N3)ncc1C(F)(F)F)S(C)(=O)=O
15 | 3390 nM | COC1=C2C[C@@H](C)C[C@H](OC)[C@H](O)[C@@H](C)/C=C(\C)[C@H](OC(N)=O)[C@@H](OC)/C=C\C=C(/C)C(=O)NC(=CC1=O)C2=O [Geldanamycin]
16 | 138 nM | COC(=O)C[C@](O)(CCCC(C)(C)O)C(=O)O[C@@H]1C(OC)=C[C@]23CCCN2CCc2cc4c(cc2[C@H]13)OCO4 [Omacetaxine]
17 | 1770 nM | C[C@@]1(C(=O)Nc2ccc(F)nc2)CCCN1c1nc(Nc2cc(C3CC3)n[nH]2)c2cccn2n1
18 | 56.6 nM | COc1ncc(-c2ccc3nccc(-c4ccnnc4)c3c2)cc1NS(=O)(=O)c1ccc(F)cc1F
19 | 130 nM | Cn1c(=O)c(F)c(Nc2ccc(I)cc2F)c2c(=O)n(C[C@@H](O)CO)cnc21 [TAK-733]

test system: BT-474; settings: 72 h
Summary of the method: as §1

Row | EC50, CellTiter-Glo | SMILES
20 | 2430 nM | CN(c1ccccc1CNc1nc(Nc2ccc3c(c2)CC(=O)N3)ncc1C(F)(F)F)S(C)(=O)=O
21 | 4080 nM | COC1=C2C[C@@H](C)C[C@H](OC)[C@H](O)[C@@H](C)/C=C(\C)[C@H](OC(N)=O)[C@@H](OC)/C=C\C=C(/C)C(=O)NC(=CC1=O)C2=O [Geldanamycin]
22 | 299 nM | COC(=O)C[C@](O)(CCCC(C)(C)O)C(=O)O[C@@H]1C(OC)=C[C@]23CCCN2CCc2cc4c(cc2[C@H]13)OCO4 [Omacetaxine]
23 | 2050 nM | C[C@@]1(C(=O)Nc2ccc(F)nc2)CCCN1c1nc(Nc2cc(C3CC3)n[nH]2)c2cccn2n1
24 | 19.8 nM | COc1ncc(-c2ccc3nccc(-c4ccnnc4)c3c2)cc1NS(=O)(=O)c1ccc(F)cc1F
25 | 33.5 nM | Cn1c(=O)c(F)c(Nc2ccc(I)cc2F)c2c(=O)n(C[C@@H](O)CO)cnc21 [TAK-733]
26 | 8260 nM | O=C(c1ccc(OCCN2CCCCC2)cc1)c1c(-c2ccc(O)cc2)sc2cc(O)ccc12 [Raloxifene]

test system: HDQ-P1; settings: 72 h
Summary of the method: as §1

Row | SMILES | EC50, CellTiter-Glo
27 | CN(c1ccccc1CNc1nc(Nc2ccc3c(c2)CC(=O)N3)ncc1C(F)(F)F)S(C)(=O)=O | 1820 nM
28 | COC1=C2C[C@@H](C)C[C@H](OC)[C@H](O)[C@@H](C)/C=C(\C)[C@H](OC(N)=O)[C@@H](OC)/C=C\C=C(/C)C(=O)NC(=CC1=O)C2=O [Geldanamycin] | 3910 nM
29 | COC(=O)C[C@](O)(CCCC(C)(C)O)C(=O)O[C@@H]1C(OC)=C[C@]23CCCN2CCc2cc4c(cc2[C@H]13)OCO4 [Omacetaxine] | 39.1 nM
30 | C[C@@]1(C(=O)Nc2ccc(F)nc2)CCCN1c1nc(Nc2cc(C3CC3)n[nH]2)c2cccn2n1 | 402 nM
31 | COc1ncc(-c2ccc3nccc(-c4ccnnc4)c3c2)cc1NS(=O)(=O)c1ccc(F)cc1F | 14.2 nM
32 | Cn1c(=O)c(F)c(Nc2ccc(I)cc2F)c2c(=O)n(C[C@@H](O)CO)cnc21 [TAK-733] | 6.97 nM

test system: MCF-10A; settings: 72 h
Summary of the method: as §1

Row | SMILES | EC50, CellTiter-Glo
33 | CN(c1ccccc1CNc1nc(Nc2ccc3c(c2)CC(=O)N3)ncc1C(F)(F)F)S(C)(=O)=O | 1490 nM
34 | COC1=C2C[C@@H](C)C[C@H](OC)[C@H](O)[C@@H](C)/C=C(\C)[C@H](OC(N)=O)[C@@H](OC)/C=C\C=C(/C)C(=O)NC(=CC1=O)C2=O [Geldanamycin] | 4380 nM
35 | COC(=O)C[C@](O)(CCCC(C)(C)O)C(=O)O[C@@H]1C(OC)=C[C@]23CCCN2CCc2cc4c(cc2[C@H]13)OCO4 [Omacetaxine] | 116 nM
36 | C[C@@]1(C(=O)Nc2ccc(F)nc2)CCCN1c1nc(Nc2cc(C3CC3)n[nH]2)c2cccn2n1 | 21.6 nM
37 | COc1ncc(-c2ccc3nccc(-c4ccnnc4)c3c2)cc1NS(=O)(=O)c1ccc(F)cc1F | 12.9 nM
38 | Cn1c(=O)c(F)c(Nc2ccc(I)cc2F)c2c(=O)n(C[C@@H](O)CO)cnc21 [TAK-733] | 3.49 nM

test system: DU-4475; settings: 72 h
Summary of the method: as §1

Row | SMILES | EC50, CellTiter-Glo
39 | CN(c1ccccc1CNc1nc(Nc2ccc3c(c2)CC(=O)N3)ncc1C(F)(F)F)S(C)(=O)=O | 2130 nM
40 | COC1=C2C[C@@H](C)C[C@H](OC)[C@H](O)[C@@H](C)/C=C(\C)[C@H](OC(N)=O)[C@@H](OC)/C=C\C=C(/C)C(=O)NC(=CC1=O)C2=O [Geldanamycin] | 2470 nM
41 | COC(=O)C[C@](O)(CCCC(C)(C)O)C(=O)O[C@@H]1C(OC)=C[C@]23CCCN2CCc2cc4c(cc2[C@H]13)OCO4 [Omacetaxine] | 14.4 nM
42 | C[C@@]1(C(=O)Nc2ccc(F)nc2)CCCN1c1nc(Nc2cc(C3CC3)n[nH]2)c2cccn2n1 | 4110 nM
43 | COc1ncc(-c2ccc3nccc(-c4ccnnc4)c3c2)cc1NS(=O)(=O)c1ccc(F)cc1F | 228 nM
44 | Cn1c(=O)c(F)c(Nc2ccc(I)cc2F)c2c(=O)n(C[C@@H](O)CO)cnc21 [TAK-733] | 7.03 nM

test system: BT-549; settings: 72 h
Summary of the method: as §1

Row | EC50, CellTiter-Glo | SMILES
45 | 3130 nM | CN(c1ccccc1CNc1nc(Nc2ccc3c(c2)CC(=O)N3)ncc1C(F)(F)F)S(C)(=O)=O
46 | 3180 nM | COC1=C2C[C@@H](C)C[C@H](OC)[C@H](O)[C@@H](C)/C=C(\C)[C@H](OC(N)=O)[C@@H](OC)/C=C\C=C(/C)C(=O)NC(=CC1=O)C2=O [Geldanamycin]
47 | 50.3 nM | COC(=O)C[C@](O)(CCCC(C)(C)O)C(=O)O[C@@H]1C(OC)=C[C@]23CCCN2CCc2cc4c(cc2[C@H]13)OCO4 [Omacetaxine]
48 | 1420 nM | C[C@@]1(C(=O)Nc2ccc(F)nc2)CCCN1c1nc(Nc2cc(C3CC3)n[nH]2)c2cccn2n1
49 | 21.8 nM | COc1ncc(-c2ccc3nccc(-c4ccnnc4)c3c2)cc1NS(=O)(=O)c1ccc(F)cc1F

test system: HCC1937; settings: 72 h
Summary of the method: as §1

Row | EC50, CellTiter-Glo | SMILES
50 | 6520 nM | CN(c1ccccc1CNc1nc(Nc2ccc3c(c2)CC(=O)N3)ncc1C(F)(F)F)S(C)(=O)=O
51 | 2130 nM | COC1=C2C[C@@H](C)C[C@H](OC)[C@H](O)[C@@H](C)/C=C(\C)[C@H](OC(N)=O)[C@@H](OC)/C=C\C=C(/C)C(=O)NC(=CC1=O)C2=O [Geldanamycin]
52 | 64.3 nM | COC(=O)C[C@](O)(CCCC(C)(C)O)C(=O)O[C@@H]1C(OC)=C[C@]23CCCN2CCc2cc4c(cc2[C@H]13)OCO4 [Omacetaxine]
53 | 130 nM | COc1ncc(-c2ccc3nccc(-c4ccnnc4)c3c2)cc1NS(=O)(=O)c1ccc(F)cc1F
54 | 341 nM | Cn1c(=O)c(F)c(Nc2ccc(I)cc2F)c2c(=O)n(C[C@@H](O)CO)cnc21 [TAK-733]
